Series [1] in a line: Solubility of the compound in water at pH 4. The format is physicochemical.
A short description of series [2]: Solubility of the compound in […]. The series is classed as physicochemical.
A short description of series [3]: Clearance in Sprague-Dawley rat at 1 mg/kg, iv. The note with it: in vivo. The format is ADME, organism-based.
For series [4], the system named is Rattus norvegicus. Nature of the series: Dose normalized AUC in Sprague-Dawley rat at 1 mg/kg, iv. The note with it: in vivo. The format is ADME, organism-based.
A short description of series [5]: Tmax in Sprague-Dawley rat at 3 mg/kg, po. The format is ADME, organism-based. The note with it: in vivo.
For series [6], the target named is T1, Phosphatidylinositol 4,5-bisphosphate 3-kinase catalytic subunit alpha isoform (Homo sapiens, UniProt P42336). Nature of the series: Inhibition of P110alpha (unknown origin) by Kinase-Glo assay.
T1 sequence (P42336 whole entry, canonical isoform): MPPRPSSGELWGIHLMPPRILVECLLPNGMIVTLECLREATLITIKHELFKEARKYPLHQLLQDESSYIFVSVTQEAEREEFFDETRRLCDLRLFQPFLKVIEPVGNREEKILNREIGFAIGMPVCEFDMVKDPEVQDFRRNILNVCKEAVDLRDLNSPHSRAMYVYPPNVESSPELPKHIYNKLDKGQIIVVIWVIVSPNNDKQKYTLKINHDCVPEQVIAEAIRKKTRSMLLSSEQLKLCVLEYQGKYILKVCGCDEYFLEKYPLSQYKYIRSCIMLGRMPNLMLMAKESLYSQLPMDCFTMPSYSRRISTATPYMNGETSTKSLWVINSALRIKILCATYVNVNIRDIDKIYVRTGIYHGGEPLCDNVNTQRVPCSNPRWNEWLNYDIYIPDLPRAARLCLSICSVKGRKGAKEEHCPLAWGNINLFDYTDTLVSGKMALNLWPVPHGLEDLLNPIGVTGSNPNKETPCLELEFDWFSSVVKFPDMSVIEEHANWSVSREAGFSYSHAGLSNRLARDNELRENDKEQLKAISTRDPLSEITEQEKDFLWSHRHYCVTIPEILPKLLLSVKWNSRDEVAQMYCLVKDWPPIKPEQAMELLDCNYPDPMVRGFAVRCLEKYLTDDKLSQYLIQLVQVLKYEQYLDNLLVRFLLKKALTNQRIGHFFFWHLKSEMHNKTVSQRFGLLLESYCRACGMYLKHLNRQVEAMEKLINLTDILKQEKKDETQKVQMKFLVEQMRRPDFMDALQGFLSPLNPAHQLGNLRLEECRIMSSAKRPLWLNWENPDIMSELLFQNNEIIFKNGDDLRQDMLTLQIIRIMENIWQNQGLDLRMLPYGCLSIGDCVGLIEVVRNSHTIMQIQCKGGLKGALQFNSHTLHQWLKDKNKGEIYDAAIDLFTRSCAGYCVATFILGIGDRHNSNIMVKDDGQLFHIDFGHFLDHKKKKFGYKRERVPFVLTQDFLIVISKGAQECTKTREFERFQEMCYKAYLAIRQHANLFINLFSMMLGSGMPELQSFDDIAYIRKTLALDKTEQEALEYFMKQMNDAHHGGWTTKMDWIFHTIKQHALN
Series [7] deals with Rattus norvegicus. Nature of the series: Dose normalized AUC in Sprague-Dawley rat at 3 mg/kg, po. The series is classed as ADME, organism-based. Particulars: in vivo.
In series [8] the target is T2, Phosphatidylinositol 4,5-bisphosphate 3-kinase catalytic subunit beta isoform (Homo sapiens, UniProt P42338). Nature of the series: Inhibition of myristoylated human P110beta expressed in Rat1 cells assessed as inhibition of Akt phosphorylation at Serine 473 by Western blot analysis. The series is classed as cell-based.
T2 sequence (P42338 whole entry, canonical isoform): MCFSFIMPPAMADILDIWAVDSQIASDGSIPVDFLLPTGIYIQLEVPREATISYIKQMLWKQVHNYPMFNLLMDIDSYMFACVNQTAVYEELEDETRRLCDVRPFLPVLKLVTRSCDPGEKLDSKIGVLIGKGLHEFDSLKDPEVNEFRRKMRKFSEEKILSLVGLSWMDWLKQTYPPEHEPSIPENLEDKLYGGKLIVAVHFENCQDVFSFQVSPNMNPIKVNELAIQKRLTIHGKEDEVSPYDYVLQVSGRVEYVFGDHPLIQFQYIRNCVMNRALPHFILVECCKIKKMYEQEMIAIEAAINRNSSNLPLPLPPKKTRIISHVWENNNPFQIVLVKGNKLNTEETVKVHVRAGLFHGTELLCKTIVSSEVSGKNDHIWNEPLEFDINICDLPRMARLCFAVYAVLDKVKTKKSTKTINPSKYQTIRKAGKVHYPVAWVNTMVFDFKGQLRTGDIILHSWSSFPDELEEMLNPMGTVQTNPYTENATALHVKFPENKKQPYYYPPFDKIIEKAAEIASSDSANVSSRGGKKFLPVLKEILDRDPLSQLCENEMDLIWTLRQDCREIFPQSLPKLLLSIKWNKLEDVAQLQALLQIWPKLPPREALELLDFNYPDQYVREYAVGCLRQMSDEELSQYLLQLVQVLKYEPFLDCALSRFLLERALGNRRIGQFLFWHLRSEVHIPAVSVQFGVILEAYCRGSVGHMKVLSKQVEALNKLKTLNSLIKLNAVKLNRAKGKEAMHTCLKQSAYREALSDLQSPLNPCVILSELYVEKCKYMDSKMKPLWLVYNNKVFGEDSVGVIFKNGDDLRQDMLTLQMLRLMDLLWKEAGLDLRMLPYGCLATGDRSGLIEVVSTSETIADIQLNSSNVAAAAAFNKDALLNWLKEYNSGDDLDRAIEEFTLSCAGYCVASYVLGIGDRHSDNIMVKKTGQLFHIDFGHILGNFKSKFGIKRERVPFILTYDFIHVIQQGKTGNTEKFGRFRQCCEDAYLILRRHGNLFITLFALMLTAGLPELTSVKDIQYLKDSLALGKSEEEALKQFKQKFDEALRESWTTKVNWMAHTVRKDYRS
Series [9] is described as follows: Volume of distribution at steady state in Sprague-Dawley rat at 1 mg/kg, iv. Particulars: in vivo, read-out: Vdss. The format is ADME, organism-based.
The target in series [10] is T3, Phosphatidylinositol 4,5-bisphosphate 3-kinase catalytic subunit delta isoform (Homo sapiens, UniProt O00329).
T3 sequence (O00329 whole entry): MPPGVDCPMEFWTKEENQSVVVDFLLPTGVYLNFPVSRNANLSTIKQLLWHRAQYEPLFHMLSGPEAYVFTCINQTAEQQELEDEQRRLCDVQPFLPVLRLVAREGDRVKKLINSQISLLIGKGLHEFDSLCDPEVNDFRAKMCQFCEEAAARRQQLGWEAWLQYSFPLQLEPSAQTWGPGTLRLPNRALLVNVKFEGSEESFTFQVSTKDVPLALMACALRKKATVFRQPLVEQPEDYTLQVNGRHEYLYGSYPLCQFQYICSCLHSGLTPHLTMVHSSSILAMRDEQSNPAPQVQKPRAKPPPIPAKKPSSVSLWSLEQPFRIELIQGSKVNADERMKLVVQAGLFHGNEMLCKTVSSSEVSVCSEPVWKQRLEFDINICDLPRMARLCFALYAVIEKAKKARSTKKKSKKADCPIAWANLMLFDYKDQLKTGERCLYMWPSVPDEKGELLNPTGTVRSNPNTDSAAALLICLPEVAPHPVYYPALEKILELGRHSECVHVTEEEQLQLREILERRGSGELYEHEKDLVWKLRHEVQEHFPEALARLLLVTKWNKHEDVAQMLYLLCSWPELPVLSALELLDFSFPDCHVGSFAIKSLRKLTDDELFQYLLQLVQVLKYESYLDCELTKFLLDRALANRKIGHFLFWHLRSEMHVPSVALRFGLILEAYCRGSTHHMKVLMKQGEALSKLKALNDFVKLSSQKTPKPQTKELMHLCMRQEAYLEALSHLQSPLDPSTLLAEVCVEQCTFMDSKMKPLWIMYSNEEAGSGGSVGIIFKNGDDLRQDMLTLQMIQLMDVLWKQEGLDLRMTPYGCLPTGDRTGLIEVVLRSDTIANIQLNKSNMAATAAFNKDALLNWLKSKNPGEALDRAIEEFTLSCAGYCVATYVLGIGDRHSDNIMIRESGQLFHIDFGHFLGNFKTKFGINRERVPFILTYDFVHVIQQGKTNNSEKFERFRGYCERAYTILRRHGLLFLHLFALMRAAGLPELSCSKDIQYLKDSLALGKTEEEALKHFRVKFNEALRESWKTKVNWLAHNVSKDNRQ
Nature of the series: Inhibition of myristoylated human P110delta expressed in Rat1 cells assessed as inhibition of Akt phosphorylation at Serine 473 by Western blot analysis. The series is classed as cell-based.

For series [11], the target named is T1, Phosphatidylinositol 4,5-bisphosphate 3-kinase catalytic subunit alpha isoform. Nature of the series: Inhibition of myristoylated human P110alpha expressed in Rat1 cells assessed as inhibition of Akt phosphorylation at Serine 473 by Western blot analysis. The series is classed as cell-based.
Series [12] is described as follows: Plasma protein binding in rat. The format is ADME, cell-free. Particulars: read-out: PPB (converted).
Series [13] addresses T2, Phosphatidylinositol 4,5-bisphosphate 3-kinase catalytic subunit beta isoform. Nature of the series: Inhibition of P110beta (unknown origin) by Kinase-Glo assay.
Series [14] addresses Phosphatidylinositol 4,5-bisphosphate 3-kinase catalytic subunit gamma isoform (Homo sapiens, UniProt P48736). Nature of the series: Inhibition of P110gamma (unknown origin) using PI or PIP2:PS as substrate measured for 15 to 60 mins by TR-FRET analysis.
The subject of series [15] is Rattus norvegicus. Nature of the series: Dose normalized Cmax in Sprague-Dawley rat at 3 mg/kg, po. The series is classed as ADME, organism-based. Particulars: in vivo.
Series [16] can be described thus: Oral bioavailability in Sprague-Dawley rat at 3 mg/kg. The format is ADME, organism-based. Particulars: in vivo.
The nature of series [17]: Solubility of the compound in water at pH 6.8. The format is physicochemical.
For series [18], the target named is T3, Phosphatidylinositol 4,5-bisphosphate 3-kinase catalytic subunit delta isoform. Nature of the series: Inhibition of P110delta (unknown origin) using PI or PIP2:PS as substrate measured for 15 to 60 mins by TR-FRET analysis.
The nature of series [19]: Terminal half life in Sprague-Dawley rat at 1 mg/kg, iv. Particulars: in vivo, read-out: beta t1/2 (converted). The format is ADME, organism-based.

In brackets after ≈: the same amount, converted by molar mass.

Sequence of Phosphatidylinositol 4,5-bisphosphate 3-kinase catalytic subunit gamma isoform (P48736 whole entry, canonical isoform): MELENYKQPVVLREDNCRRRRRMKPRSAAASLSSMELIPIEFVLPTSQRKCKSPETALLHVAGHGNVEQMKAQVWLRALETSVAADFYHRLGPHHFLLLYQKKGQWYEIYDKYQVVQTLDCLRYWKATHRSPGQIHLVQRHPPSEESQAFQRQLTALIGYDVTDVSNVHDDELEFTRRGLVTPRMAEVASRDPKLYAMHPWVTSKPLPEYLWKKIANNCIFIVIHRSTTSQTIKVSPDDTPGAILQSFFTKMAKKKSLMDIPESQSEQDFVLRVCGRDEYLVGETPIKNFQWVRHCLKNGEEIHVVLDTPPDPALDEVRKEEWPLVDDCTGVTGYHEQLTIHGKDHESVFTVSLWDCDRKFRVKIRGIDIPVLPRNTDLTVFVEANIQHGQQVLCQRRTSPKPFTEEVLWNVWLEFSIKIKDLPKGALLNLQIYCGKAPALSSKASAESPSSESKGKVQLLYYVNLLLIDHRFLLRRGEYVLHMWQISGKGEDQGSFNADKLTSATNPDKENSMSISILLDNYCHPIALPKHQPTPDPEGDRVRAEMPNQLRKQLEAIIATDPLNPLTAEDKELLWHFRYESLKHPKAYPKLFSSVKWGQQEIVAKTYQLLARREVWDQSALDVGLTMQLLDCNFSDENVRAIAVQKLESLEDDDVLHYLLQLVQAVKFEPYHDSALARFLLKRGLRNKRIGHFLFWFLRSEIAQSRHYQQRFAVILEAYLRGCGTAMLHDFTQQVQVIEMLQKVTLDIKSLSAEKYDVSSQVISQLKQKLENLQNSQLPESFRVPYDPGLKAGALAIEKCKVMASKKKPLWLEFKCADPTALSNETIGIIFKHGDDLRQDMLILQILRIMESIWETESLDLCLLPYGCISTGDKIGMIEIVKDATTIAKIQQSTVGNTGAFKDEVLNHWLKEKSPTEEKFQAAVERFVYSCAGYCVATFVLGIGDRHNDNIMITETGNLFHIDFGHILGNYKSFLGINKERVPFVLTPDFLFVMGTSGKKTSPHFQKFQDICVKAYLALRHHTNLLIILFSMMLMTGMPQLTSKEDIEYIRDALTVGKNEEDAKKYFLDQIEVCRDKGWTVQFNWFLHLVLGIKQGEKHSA

Regarding `C[C@@H]1CCN(C(=O)Nc2nc3c(s2)-c2cc(C(C)(C)C(F)(F)F)ncc2OC3)[C@@H]1C(N)=O`, the solubility in series [1] was found to be 450 µM (≈ 211 µg/mL); in series [2], 410 µM (≈ 192 µg/mL); in series [17], 260 µM (≈ 122 µg/mL). This compound also showed a clearance in series [3] of 27 mL/min/kg. The AUC/dose was determined as 1368 nM·h with Rattus norvegicus [4] and 228 nM·h in the series on Rattus norvegicus [7]. The Tmax in series [5] was determined as 1.2 h. In addition, the 50% inhibitory concentration (IC50) in [6] was 5 nM; in [8], 1110 nM; in [10] it was 540 nM; in series [11] it was 11 nM; in series [13] it was 670 nM; in series [14], 200 nM. Besides, 220 nM corresponded to half-maximal inhibition in series [18] (IC50). Moreover, the Vd in [9] was 1.8 L/kg. Besides, the fraction unbound in series [12] was 0.033. For the same compound, the Cmax/dose with Rattus norvegicus [15] stood at 61 nM. In series [16], the bioavailability is 17%. For the same compound, the half-life in series [19] is 1.4 h.

With `Cc1nc(NC(=O)N2CC[C@@H](C)[C@H]2C(N)=O)sc1-c1ccnc(C(C)(C)C(F)(F)F)c1`, the solubility worked out at 35 µM (≈ 15.9 µg/mL) in series [1], 31 µM (≈ 14.1 µg/mL) in [2] and 23 µM (≈ 10.5 µg/mL) in [17]. Further, the IC50 in series [6] came to 19 nM; in [8], 2000 nM; in series [10], 616 nM; in series [11] it was 19 nM; in [13] it was 1040 nM; in series [14] it was 230 nM. Inhibition in [18] was half-maximal at 390 nM (IC50).
